From ChEMBL document CHEMBL5579807, “Development of STING degrader with double covalent ligands” (Bioorg Med Chem Lett, 2024)
One block for each compound: values may come before it. Calls of active or inactive are those of the source. The calls are words filed in the database; no cut-off is given here.

What was measured:
Type in all cases: cell-based
[1] = target: T1, E3 ubiquitin-protein ligase RNF126/Stimulator of interferon genes protein (Homo sapiens) (UniProt Q86WV6+Q9BV68); assay: PROTAC activity at RNF126/STING in human THP-1 cells assessed as induction of STING degradation upto 30 uM incubated for 24 hrs by Western blot analysis
T1 sequence (Q86WV6 whole entry, looked up): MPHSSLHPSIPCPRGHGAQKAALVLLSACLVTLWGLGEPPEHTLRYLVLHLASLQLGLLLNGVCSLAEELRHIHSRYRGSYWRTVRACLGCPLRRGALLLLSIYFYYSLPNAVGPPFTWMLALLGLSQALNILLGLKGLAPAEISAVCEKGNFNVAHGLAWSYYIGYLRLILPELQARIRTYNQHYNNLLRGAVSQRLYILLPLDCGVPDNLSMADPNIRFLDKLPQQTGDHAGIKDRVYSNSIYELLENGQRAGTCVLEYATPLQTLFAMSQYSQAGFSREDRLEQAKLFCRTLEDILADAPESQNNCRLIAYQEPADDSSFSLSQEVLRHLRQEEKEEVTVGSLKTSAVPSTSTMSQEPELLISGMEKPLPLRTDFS
T1 sequence (Q9BV68 whole entry, looked up): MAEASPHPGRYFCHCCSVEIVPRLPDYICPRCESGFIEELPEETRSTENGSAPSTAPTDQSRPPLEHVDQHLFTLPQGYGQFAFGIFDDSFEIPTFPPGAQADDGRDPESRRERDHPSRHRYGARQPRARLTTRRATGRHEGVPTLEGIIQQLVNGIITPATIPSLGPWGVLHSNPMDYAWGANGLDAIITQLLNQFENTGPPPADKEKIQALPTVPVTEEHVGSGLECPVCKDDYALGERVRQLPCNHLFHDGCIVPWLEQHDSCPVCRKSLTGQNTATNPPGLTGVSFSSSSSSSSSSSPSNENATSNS

[2] = target: T2, Protein cereblon/Stimulator of interferon genes protein (Homo sapiens) (UniProt Q96SW2+Q86WV6); assay: PROTAC activity at CRBN/STING in human THP-1 cells assessed as induction of STING degradation incubated for 24 to 48 hrs by Western blot analysis; settings: dose 3-30 µM, time 24-48 hrs
T2 sequence (Q86WV6 whole entry, looked up): as the sequence (Q86WV6 whole entry, looked up) above
T2 sequence (Q96SW2 whole entry, looked up): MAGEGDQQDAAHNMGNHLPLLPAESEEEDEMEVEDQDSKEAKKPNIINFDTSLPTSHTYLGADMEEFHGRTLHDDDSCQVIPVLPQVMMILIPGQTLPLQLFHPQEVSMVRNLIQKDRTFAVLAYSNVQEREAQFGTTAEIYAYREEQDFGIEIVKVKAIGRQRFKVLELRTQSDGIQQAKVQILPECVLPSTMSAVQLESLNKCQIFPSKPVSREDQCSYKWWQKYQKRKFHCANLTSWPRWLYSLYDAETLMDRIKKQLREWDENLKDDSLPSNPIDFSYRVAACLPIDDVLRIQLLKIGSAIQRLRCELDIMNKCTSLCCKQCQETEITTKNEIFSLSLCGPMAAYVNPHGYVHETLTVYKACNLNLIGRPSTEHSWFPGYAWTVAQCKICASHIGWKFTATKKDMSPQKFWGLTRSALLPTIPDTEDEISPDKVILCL

[3] = target: T2, Protein cereblon/Stimulator of interferon genes protein (Homo sapiens); assay: PROTAC activity at CRBN/STING in human THP-1 cells assessed as induction of STING degradation at 3 to 30 uM incubated for 6 hrs by Western blot analysis; settings: dose 3-30 µM
[4] = target: T1, E3 ubiquitin-protein ligase RNF126/Stimulator of interferon genes protein (Homo sapiens); assay: PROTAC activity at RNF126/STING in human THP-1 cells assessed as induction of STING degradation at 10 uM incubated for 24 hrs by Western blot analysis
[5] = target: T1, E3 ubiquitin-protein ligase RNF126/Stimulator of interferon genes protein (Homo sapiens); assay: PROTAC activity at RNF126/STING in human THP-1 cells assessed as induction of STING degradation at 3 to 30 uM incubated for 6 to 48 hrs by Western blot analysis; settings: dose 3-30 µM, time 6-48 hrs
[6] = target: T1, E3 ubiquitin-protein ligase RNF126/Stimulator of interferon genes protein (Homo sapiens); assay: PROTAC activity at RNF126/STING in human THP-1 cells assessed as induction of STING degradation at 3 uM incubated for 18 hrs in the presence of MG132 by Western blot analysis
[7] = target: Stimulator of interferon genes protein (Homo sapiens) (UniProt Q86WV6); assay: Inhibtion of STING in 293-Dual hSTING-R232 cells co-expressing interferon beta luciferase reporter assessed as inhibition of interferon response incubated for 16 hrs in presence of cGAMP by luminescence based luciferase gene reporter assay; settings: dose 1-30 µM
Stimulator of interferon genes protein (Homo sapiens), sequence (Q86WV6 whole entry): as the sequence (Q86WV6 whole entry, looked up) above

[8] = target: T1, E3 ubiquitin-protein ligase RNF126/Stimulator of interferon genes protein (Homo sapiens); assay: PROTAC activity at RNF126/STING in human THP-1 cells assessed as induction of STING degradation at 3 uM incubated for 18 hrs in the presence of MLN7243 by Western blot analysis

Activity [1]: Active
SMILES: COc1ccc(C(=O)/C=C/C(=O)Nc2ccc(NC(=O)c3ccc([N+](=O)[O-])o3)cc2)cc1

Activity [2]: Dose-Dependent Effect
Activity [3]: inactive
SMILES: O=C(/C=C/C(=O)Nc1ccc(NC(=O)c2ccc([N+](=O)[O-])o2)cc1)NCCCCCCNc1cccc2c1C(=O)N(C1CCC(=O)NC1=O)C2=O (stereo not drawn)

Activity [4]: Active
Activity [5]: Active
Activity [6]: inactive
inhibition [7]: Dose-Dependent Effect
Activity [8]: inactive
SMILES: COc1ccc(C(=O)/C=C/C(=O)N2CCN(c3ccc(NC(=O)c4ccc([N+](=O)[O-])o4)cc3)CC2)cc1
